Measurements published in the NIST ThermoML archive (doi:10.1016/j.jct.2018.08.035).
“And” between values parts separate entries of the source, which are not always exact repeats. Equal values may be shown once.

Experiment: xn = mol fraction of the nth substance listed
Conditions: 100 kPa, Liquid, Vibrating tube method

CCC(O)CC [3-pentanol] + C[N+](=O)[O-]
Conditions | mass density
291.86 K, x1 = 0.325 | 974.982 kg/m3
291.86 K, x1 = 0.363 | 961.613 kg/m3
291.86 K, x1 = 0.407 | 946.991 kg/m3
291.86 K, x1 = 0.488 | 922.68 kg/m3
291.86 K, x1 = 0.546 | 907.193 kg/m3
291.86 K, x1 = 0.587 | 896.735 kg/m3
291.95 K, x1 = 0.246 | 1005.58 kg/m3
291.95 K, x1 = 0.275 | 993.548 kg/m3
291.95 K, x1 = 0.3 | 984.145 kg/m3
291.95 K, x1 = 0.325 | 974.857 kg/m3
291.95 K, x1 = 0.338 | 970.048 kg/m3
291.95 K, x1 = 0.363 | 961.485 kg/m3
291.95 K, x1 = 0.382 | 954.991 kg/m3
291.95 K, x1 = 0.407 | 946.861 kg/m3
291.95 K, x1 = 0.414 | 944.587 kg/m3
291.95 K, x1 = 0.486 | 923.287 kg/m3
291.95 K, x1 = 0.488 | 922.559 kg/m3
291.95 K, x1 = 0.573 | 900.26 kg/m3
291.95 K, x1 = 0.587 | 896.628 kg/m3
291.95 K, x1 = 0.615 | 889.805 kg/m3
291.96 K, x1 = 0.266 | 997.055 kg/m3
291.96 K, x1 = 0.546 | 907.079 kg/m3
292.05 K, x1 = 0.246 | 1005.45 kg/m3
292.05 K, x1 = 0.275 | 993.426 kg/m3
292.05 K, x1 = 0.382 | 954.866 kg/m3
292.05 K, x1 = 0.414 | 944.459 kg/m3
292.05 K, x1 = 0.486 | 923.167 kg/m3
292.05 K, x1 = 0.573 | 900.153 kg/m3
292.05 K, x1 = 0.615 | 889.701 kg/m3
292.06 K, x1 = 0.266 | 996.934 kg/m3
292.06 K, x1 = 0.3 | 984.022 kg/m3
292.06 K, x1 = 0.325 | 974.734 kg/m3
292.06 K, x1 = 0.338 | 969.925 kg/m3
292.06 K, x1 = 0.363 | 961.36 kg/m3
292.06 K, x1 = 0.407 | 946.736 kg/m3
292.06 K, x1 = 0.488 | 922.439 kg/m3
292.06 K, x1 = 0.546 | 906.966 kg/m3
292.06 K, x1 = 0.587 | 896.519 kg/m3
292.15 K, x1 = 0.246 | 1005.33 kg/m3
292.15 K, x1 = 0.325 | 974.609 kg/m3
292.15 K, x1 = 0.338 | 969.8 kg/m3
292.15 K, x1 = 0.382 | 954.742 kg/m3
292.15 K, x1 = 0.414 | 944.336 kg/m3
292.15 K, x1 = 0.486 | 923.052 kg/m3
292.15 K, x1 = 0.488 | 922.322 kg/m3
292.16 K, x1 = 0.266 | 996.81 kg/m3
292.16 K, x1 = 0.275 | 993.303 kg/m3
292.16 K, x1 = 0.3 | 983.896 kg/m3
292.16 K, x1 = 0.363 | 961.234 kg/m3
292.16 K, x1 = 0.407 | 946.608 kg/m3
292.16 K, x1 = 0.546 | 906.853 kg/m3
292.16 K, x1 = 0.573 | 900.046 kg/m3
292.16 K, x1 = 0.587 | 896.411 kg/m3
292.16 K, x1 = 0.615 | 889.595 kg/m3
292.16 K, x1 = 0.629 | 886.146 kg/m3
293.15 K, x1 = 0.266 | 995.587 kg/m3
293.15 K, x1 = 0.338 | 968.578 kg/m3
293.15 K, x1 = 0.546 | 905.746 kg/m3
293.16 K, x1 = 0.246 | 1004.11 kg/m3
293.16 K, x1 = 0.275 | 992.082 kg/m3
293.16 K, x1 = 0.3 | 982.679 kg/m3
293.16 K, x1 = 0.325 | 973.389 kg/m3
293.16 K, x1 = 0.363 | 960.014 kg/m3
293.16 K, x1 = 0.382 | 953.524 kg/m3
293.16 K, x1 = 0.407 | 945.397 kg/m3
293.16 K, x1 = 0.414 | 943.126 kg/m3
293.16 K, x1 = 0.486 | 921.889 kg/m3
293.16 K, x1 = 0.488 | 921.165 kg/m3
293.16 K, x1 = 0.573 | 898.962 kg/m3
293.16 K, x1 = 0.587 | 895.341 kg/m3
293.16 K, x1 = 0.615 | 888.546 kg/m3
293.16 K, x1 = 0.629 | 885.109 kg/m3
294.15 K, x1 = 0.246 | 1002.88 kg/m3
294.15 K, x1 = 0.266 | 994.369 kg/m3
294.15 K, x1 = 0.275 | 990.864 kg/m3
294.15 K, x1 = 0.3 | 981.466 kg/m3
294.15 K, x1 = 0.325 | 972.183 kg/m3
294.15 K, x1 = 0.338 | 967.375 kg/m3
294.15 K, x1 = 0.363 | 958.817 kg/m3
294.15 K, x1 = 0.382 | 952.329 kg/m3
294.15 K, x1 = 0.407 | 944.215 kg/m3
294.15 K, x1 = 0.414 | 941.945 kg/m3
294.15 K, x1 = 0.486 | 920.751 kg/m3
294.15 K, x1 = 0.488 | 920.031 kg/m3
294.15 K, x1 = 0.546 | 904.649 kg/m3
294.15 K, x1 = 0.573 | 897.886 kg/m3
294.15 K, x1 = 0.587 | 894.274 kg/m3
294.15 K, x1 = 0.615 | 887.502 kg/m3
294.15 K, x1 = 0.629 | 884.073 kg/m3
295.15 K, x1 = 0.246 | 1001.66 kg/m3
295.15 K, x1 = 0.266 | 993.153 kg/m3
295.15 K, x1 = 0.275 | 989.651 kg/m3
295.15 K, x1 = 0.3 | 980.26 kg/m3
295.15 K, x1 = 0.325 | 970.983 kg/m3
295.15 K, x1 = 0.338 | 966.179 kg/m3
295.15 K, x1 = 0.363 | 957.627 kg/m3
295.15 K, x1 = 0.382 | 951.15 kg/m3
295.15 K, x1 = 0.407 | 943.045 kg/m3
295.15 K, x1 = 0.414 | 940.778 kg/m3
295.15 K, x1 = 0.486 | 919.625 kg/m3
295.15 K, x1 = 0.488 | 918.905 kg/m3
295.15 K, x1 = 0.546 | 903.56 kg/m3
295.15 K, x1 = 0.587 | 893.213 kg/m3
295.15 K, x1 = 0.615 | 886.458 kg/m3
295.15 K, x1 = 0.629 | 883.039 kg/m3
295.16 K, x1 = 0.573 | 896.815 kg/m3
296.15 K, x1 = 0.275 | 988.439 kg/m3
296.15 K, x1 = 0.338 | 964.988 kg/m3
296.15 K, x1 = 0.382 | 949.976 kg/m3
296.15 K, x1 = 0.414 | 939.619 kg/m3
296.15 K, x1 = 0.615 | 885.416 kg/m3
296.16 K, x1 = 0.246 | 1000.44 kg/m3
296.16 K, x1 = 0.266 | 991.939 kg/m3
296.16 K, x1 = 0.3 | 979.058 kg/m3
296.16 K, x1 = 0.325 | 969.786 kg/m3
296.16 K, x1 = 0.363 | 956.447 kg/m3
296.16 K, x1 = 0.407 | 941.881 kg/m3
296.16 K, x1 = 0.486 | 918.503 kg/m3
296.16 K, x1 = 0.488 | 917.785 kg/m3
296.16 K, x1 = 0.546 | 902.476 kg/m3
296.16 K, x1 = 0.573 | 895.746 kg/m3
296.16 K, x1 = 0.587 | 892.153 kg/m3
296.16 K, x1 = 0.629 | 882.004 kg/m3
297.15 K, x1 = 0.246 | 999.224 kg/m3
297.15 K, x1 = 0.266 | 990.728 kg/m3
297.15 K, x1 = 0.3 | 977.857 kg/m3
297.15 K, x1 = 0.325 | 968.596 kg/m3
297.15 K, x1 = 0.338 | 963.801 kg/m3
297.15 K, x1 = 0.363 | 955.27 kg/m3
297.15 K, x1 = 0.382 | 948.809 kg/m3
297.15 K, x1 = 0.407 | 940.724 kg/m3
297.15 K, x1 = 0.414 | 938.464 kg/m3
297.15 K, x1 = 0.486 | 917.385 kg/m3
297.15 K, x1 = 0.488 | 916.67 kg/m3
297.15 K, x1 = 0.573 | 894.678 kg/m3
297.15 K, x1 = 0.615 | 884.375 kg/m3
297.15 K, x1 = 0.629 | 880.972 kg/m3
297.16 K, x1 = 0.275 | 987.23 kg/m3
297.16 K, x1 = 0.546 | 901.393 kg/m3
297.16 K, x1 = 0.587 | 891.096 kg/m3
298.15 K, x1 = 0.246 | 998.021 kg/m3
298.15 K, x1 = 0.266 | 989.517 kg/m3
298.15 K, x1 = 0.275 | 986.032 kg/m3
298.15 K, x1 = 0.3 | 976.66 kg/m3
298.15 K, x1 = 0.325 | 967.413 kg/m3
298.15 K, x1 = 0.338 | 962.62 kg/m3
298.15 K, x1 = 0.363 | 954.105 kg/m3
298.15 K, x1 = 0.382 | 947.647 kg/m3
298.15 K, x1 = 0.407 | 939.572 kg/m3
298.15 K, x1 = 0.414 | 937.32 kg/m3 and 937.319 kg/m3
298.15 K, x1 = 0.486 | 916.279 kg/m3
298.15 K, x1 = 0.488 | 915.564 kg/m3
298.15 K, x1 = 0.546 | 900.318 kg/m3
298.15 K, x1 = 0.573 | 893.615 kg/m3
298.15 K, x1 = 0.587 | 890.042 kg/m3
298.15 K, x1 = 0.615 | 883.332 kg/m3
298.15 K, x1 = 0.629 | 879.94 kg/m3
